Experimental data published in patent US20100113430A1, “THIOXANTHENE DERIVATES USEFUL TO TREAT INFECTIOUS DISEASES” (BKG PHARMA APS, priority 2007, published 2010).
Values after ≈ are worked out from the molar mass of the structure shown.

Key:
Type in all cases: cell-based
[1] = test system: Fluconazole Resistant Candida albicans clinical isolate; assay: MIC (80% growth inhibition), broth microdilution NCCLS M27-A, fluconazole resistant Candida albicans; conditions: Candida albicans
Description: The antimicrobial effect of N-dealkyl-trans-clopenthixol and N-dealkyl-trans-flupenthixol was studied by exposing cells to 0-8 μg/ml of the compounds in two-fold dilutions. Each experiment was repeated in triple duplicate. MIC values represent the mean values of two separate experiments.
Clinical Isolate of A Fluconazole Resistant Candida albicans from a Patient with Candidemia.
The isolates were subcultured for 24 h on Sabouraud glucose agar before susceptibility testing. Broth microdilution tests were performed according to NCCLS document M27-A (Ref: National Commitee for Clinical Laboratory Standards. (1997). Reference Method for Broth Dilution Antifungal Susceptibility Testing of Yeasts: Approved Standard M27-A. NCCLS, Wayne, Pa.)
Microtitre plates were read spectrophotometrically at 530 nm, after mixing the wells by pipetting to resuspend yeast sediments. The MIC was defined as the lowest drug dilution resulting in 80% growth inhibition.

[2] = test system: multiresistant clinical isolate of Staphylococcus epidermidis; assay: MIC, microdilution broth method (NCCLS), Staphylococcus epidermidis
Description: (§1) Cell growth was tested using the Minimal Inhibitory Concentration (MIC) susceptibility tests by use of the microdilution broth method in accordance to the NCCLS Guidelines (NCCLS Guidelines, Methods for Dilution Antimicrobial Susceptibility Tests for Bacteria That Grow Aerobically; Approved Standard, Sixth Edition, Volume 23; Number 2). The minimum inhibitory concentration (MIC), is defined ad the lowest concentration of drug which inhibits growth of the test organism, in the sense that no visible growth is detected (total inhibition of growth). In example 2 MIC of the compounds used on fungal microorganisms was determined from the IC90 measurements according to NCCLS Guidelines.
A log phase culture of bacteria was diluted with fresh pre-warmed Mueller-Hinton medium and adjusted to a defined OD at 600 nm in order to give a final concentration of 1×10^4-5 bacteria/ml medium. The bacterial culture was transferred to microtiter-plates and culture was added to each well. […] Trays were incubated at 37° C. by shaking in a robot analyzer, PowerWavex, software KC^4′ Kebo.Lab, Copenhagen, for 16 h and optical densities were measured at 600 nm during the incubation time in order to record growth curves. Wells containing bacterial culture without drug were used as controls to ensure correct inoculum size and bacterial growth during the incubation. Cultures were tested in order to detect contaminations. Each experiment was repeated in triplicate.
A clinically relevant isolate of Staphylococcus epidermidis was cultured and assayed as described above for susceptibility towards the compounds listed in table 1.

Streptococci = assay: MIC/IC90 broad spectrum, Streptococci; conditions: 30 strains, 20 resistant
Description: as §1
(§2) A log phase culture of bacteria was diluted with fresh pre-warmed Mueller-Hinton medium and adjusted to a defined OD at 600 nm in order to give a final concentration of 1×10^4-5 bacteria/ml medium. The bacterial culture was transferred to microtiter-plates and culture was added to each well. Drug was added to the bacterial culture in the wells as two-fold dilution series of drug in order to give final concentrations ranging from 0.03 to 128 μg/ml. Trays were incubated at 37° C. by shaking in a robot analyzer, PowerWavex, software KC^4′ Kebo.Lab, Copenhagen, for 16 h and optical densities were measured at 600 nm during the incubation time in order to record growth curves. Wells containing bacterial culture without drug were used as controls to ensure correct inoculum size and bacterial growth during the incubation. Cultures were tested in order to detect contaminations. Each experiment was repeated in triplicate. MIC values represent the mean values of two separate triplicate experiments. Intra- and interassay variation was <5%.
(§3) Inhibition 90 (IC90) is defined as: OD responding a 90% growth inhibition.
(§4) A broad spectrum of bacteria were cultured and assayed as described above for susceptibility towards N-dealkyl-clopenthixol.

[3] = test system: clinically relevant resistant bacterial isolate S. Aureus; assay: Growth inhibition by cis/trans combinations, resistant isolate S. Aureus; conditions: Cis-compound 16 μg/ml, Trans-compound 0 μg/ml
Description: as §1
as §2, with “Wells containing bacterial culture without drug were used as controls to ensure correct inoculum size and bacterial growth during the incubation. Cultures were tested in order to detect contaminations. Each experiment was repeated in triplicate. MIC values represent the mean values of two separate triplicate experiments. Intra- and interassay variation was <5%.” left out

[4] = test system: Enterococcus faecalis resistant clinical isolates; assay: MIC/IC90, resistant clinical isolates of Enterococcus faecalis
Description: as §1, §2, §3
(§5) Clinically relevant isolates were cultured and assayed as described above.

[5] = test system: Staphylococci, Micrococci. Including MRSA; assay: MIC/IC90 broad spectrum, Staphylococci and Micrococci; conditions: 30 strains, 20 resistant (20 MRSA)
Description: as §1, §2, §3, §4

Gram negative sp. = assay: MIC/IC90 broad spectrum, Gram negative sp.; conditions: 25 strains, 20 resistant
Description: as §1, §2, §3, §4

[6] = test system: Enterococcus faecium resistant clinical isolates; assay: MIC/IC90, resistant clinical isolates of Enterococcus faecium
Description: as §1, §2
Inhibition 90 (IC90) is defined as: OD responding a 90% growth inhibition. […]
as §5

[7] = test system: Candida glabrata Multiresistant isolate; assay: MIC of cis- and trans-forms, Candida glabrata multiresistant isolate; conditions: Example 4
Description: as §1
Cultured microorganisms were assayed as described above. Cis- and trans-isomers of N-dealkyl-clopenthixol was added to the cultures.

[8] = test system: Candida albicans clinical isolate; assay: MIC (90% growth inhibition), broth microdilution NCCLS M27-A, Candida albicans; conditions: strain 1. Candida albicans FR (fluconazole resistant)
Description: as §1
The antibacterial effect of demethylated/dealkylated phenothiazine or thioxanthene compounds were studied by growth inhibition studies exposing cells to 0-32 μg/ml of drug. Each experiment was repeated in triplicate. MIC values represent the mean values of two separate triplicate experiments.
(§6) 4 clinical isolates of Candida sp. (including 3 fluconazole resistant isolates) were subcultured for 24 h on Sabouraud glucose agar before susceptibility testing. Broth microdilution tests were performed according to NCCLS document M27-A (Ref: National Committee for Clinical Laboratory Standards. (1997). Reference Method for Broth Dilution Antifungal Susceptibility Testing of Yeasts: Approved Standard M27-A. NCCLS, Wayne, Pa.). Microtitre plates were read spectrophotometrically at 530 nm, after mixing the wells by pipetting to resuspend yeast sediments. In this experiment, the MIC was defined as the lowest drug dilution resulting in 90% growth inhibition.

[9] = test system: Candida glabrata clinical isolates; assay: MIC (90% growth inhibition), broth microdilution NCCLS M27-A, Candida glabrata
Description: as §1, with “Guidelines. […]” for “Guidelines.”
as §6

[10] = multiresistant clinical isolate of Staphylococcus epidermidis, Example 1
[11] = strain 2. Candida glabrata FR (fluconazole resistant)
[12] = strain 4. Candida glabrata FR (fluconazole resistant)

In the case of OC(Cn1cncn1)(Cn1cncn1)c1ccc(F)cc1F [Fluconazole, reference compound], the MIC [1] was 128 µg/mL (≈ 418 µM).

In the case of Clc1ccc2c(c1)/C(=C\CCN1CCNCC1)c1ccccc1S2 [N-dealkyl-cis-clopenthixol, cis-1-(3-(2-chlorothioxanthen-9-ylidene)propyl)piperazine], the MIC ([2]; Staphylococcus epidermidis multiresistant isolate, Example 6, isomers alone and 1:1 mixture) was greater than 8 µg/mL, the MIC [2, 10] was 16 µg/mL (≈ 44.8 µM) and the “MIC (mean)” value (Streptococci) was 16 µg/mL (≈ 44.8 µM). For the same compound, the Growth inhibition [3] was 100%, the MIC ([4]; Enterococcus faecalis 1, VanA) was greater than 8 µg/mL and the MIC ([4]; Enterococcus faecalis 2, VanA) was greater than 8 µg/mL. It also gave an MIC ([4]; Enterococcus faecalis 3, VanA) greater than 8 µg/mL, an MIC ([4]; Enterococcus faecalis 4, VanB) greater than 8 µg/mL and an MIC ([4]; Enterococcus faecalis 5, Van B) greater than 8 µg/mL. It also gave an MIC ([4]; Enterococcus faecalis 6, VanB) greater than 8 µg/mL, an MIC ([4]; Enterococcus faecalis 7, VanA) greater than 8 µg/mL and an MIC ([4]; Enterococcus faecalis 8, HLAR) greater than 8 µg/mL. For the same compound, the MIC ([4]; Enterococcus faecalis 9, HLAR) was greater than 8 µg/mL, the MIC ([4]; Enterococcus faecalis 10, BLR, CR) was greater than 8 µg/mL and the “MIC (mean)” value [5] was 16 µg/mL (≈ 44.8 µM). The “MIC (mean)” value (Gram negative sp.) was greater than 16 µg/mL, the MIC ([6]; Enterococcus faecium 11, VanA) was greater than 8 µg/mL and the MIC ([6]; Enterococcus faecium 12, VanA) was greater than 8 µg/mL. For the same compound, the MIC ([6]; Enterococcus faecium 13, VanB) was greater than 8 µg/mL, the MIC ([6]; Enterococcus faecium 14, HLAR) was greater than 8 µg/mL and the MIC ([6]; Enterococcus faecium 15, HLAR) was greater than 8 µg/mL. For the same compound, the MIC ([6]; Enterococcus faecium 16, BLR, CR) was greater than 8 µg/mL, the MIC ([6]; Enterococcus faecium 17, VanB) was greater than 8 µg/mL and the MIC ([6]; Enterococcus faecium 18, VanB) was greater than 8 µg/mL. It also gave an MIC ([6]; Enterococcus faecium 19, VanB) greater than 8 µg/mL, an MIC ([6]; Enterococcus faecium multiresistant isolate, Example 4) of 16 µg/mL (≈ 44.8 µM) and an MIC [7] greater than 16 µg/mL.

For CNCCCN1c2ccccc2Sc2ccc(Cl)cc21 [N-desmethyl-chlorpromazine, reference compound], the MIC [2, 10] was 16 µg/mL (≈ 52.5 µM).

Fc1ccc2c(c1)C(=CCCN1CCNCC1)c1ccccc1S2 [N-dealkyl-cis-flupenthixol, cis-1-(3-(2-fluor-thioxanthen-9-ylidene)propyl)piperazine] was tested, and the MIC [2, 10] was 16 µg/mL (≈ 47 µM).

“Desmethyl-perphenazin [reference compound]” showed an MIC [2, 10] of 16 µg/mL, an MIC [8] of 16 µg/mL and an MIC [9, 11] of 16 µg/mL. It also gave an MIC [9, 12] of 16 µg/mL and an MIC ([9]; strain 5. Candida glabrata) of 16 µg/mL.

In the case of FC(F)(F)c1ccc2c(c1)N(CCCN1CCNCC1)c1ccccc1S2 [N-deshydroxy-ethyl-Fluphenazine, reference compound], the MIC [2, 10] was 16 µg/mL (≈ 40.7 µM).

Work on CNCCC=C1c2ccccc2Sc2ccc(Cl)cc21 [N-desmethyl-Chlorprothixen, reference compound] yielded an MIC [2, 10] of 16 µg/mL (≈ 53 µM), an MIC [8] of 16 µg/mL (≈ 53 µM) and an MIC [9, 11] of 16 µg/mL (≈ 53 µM). The MIC [9, 12] was 16 µg/mL (≈ 53 µM) and the MIC ([9]; strain 5. Candida glabrata) was 16 µg/mL (≈ 53 µM).
